Source: paper PMC11555678, “Improved Broad Spectrum Antifungal Drug Synergies with Cryptomycin, a Cdc50-Inspired Antifungal Peptide” (ACS Infectious Diseases, 2024)
Like-named read-outs stand apart in the source and are kept apart here. Square brackets hold non-standard residues; d marks the D form. Ends that are not written are not given here. Peptide text beside a SMILES is read from it. * marks the point of attachment. Myristoyl = CCCCCCCCCCCCCC(=O)*; Orn = NCCC[C@H](N)C(=O)O

Columns and labels:
[1] = system: C. neoformans H99; design: method as in PMID 35377230; conditions: with CAS, additive drug synergy; cited from earlier work
Text: We endeavored to develop an inhibitor to target flippase function in Cn and harness the critical importance of Cdc50 in antifungal drug resistance and virulence. […] The peptide sequence was identified using an epitope approach. First, anti-Cdc50 polyclonal antibodi ...

[2] = system: C. neoformans H99; conditions: previously published peptide; cited from earlier work
[3] = system: C. neoformans H99; assay type: cell-based, Cryptococcus neoformans; conditions: 2× MIC; subsequent rebound of the population through 8 h; RPMI1640, 30 °C
Method: Culture tubes were prepared with aliquots of 2.0 mL of RPMI1640 (containing Q, MOPS, pH = 7, no phenol red). The tubes were sealed to prevent evaporation and were equilibrated with the incubation chamber overnight, at 30 °C. On the day of the experiment, overnight yeast cultures in YPD were washed twice with DD-H2O and resuspended in DD-H2O. The OD600 of the cell suspension was adjusted to 4.6, ≈2 × 10^6 cfu/mL, in DD-H2O. A 200 μL aliquot of adjusted cell suspension was added systematically to each tube, followed by 200 μL sampling for the 0 h time point. Immediately after sampling, the antifungal compounds were added, and the tubes were placed in the incubator at 30 °C with shaking at 225 rpm. The sampled aliquot was transferred to a 96-well plate and serially diluted six times, 10-fold each time. The resulting cell suspensions were spotted onto YPD plates in a grid pattern of 5 μL per spot. Subsequently, tubes were briefly removed from the incubator, and 100 μL aliquots were sampled at 2, 4, 6, and 8 h time points. Cells were counted on the YPD plates at either 24 or 48 h after plate spotting, depending on when the colonies were countable. Images of the YPD plates were recorded on the Bio-Rad Gel imager after 48 h of incubation at 30 °C. […] 2 C = number of colonies counted, Df = dilution factor = 10^n–1, n = column that the cells were counted, and Vf = volume factor = 1/0.005 mL.

[4] = system: C. albicans SC5413; test: microbe, parasite or virus in culture; assay type: cell-based, Candida albicans
Method: (§1) All microdilution assays with fungi were carried out in accordance with CLSI protocols from M27 for yeasts and M38 for filamentous fungi, respectively, unless otherwise specified.[64],[65] Briefly, 96-well plates were charged with RPMI1640 media, with operating volume in the first column, 200 μL, and half operating volume, 100 μL, in the remaining wells. Drug stock solution in DMSO was aliquoted into the first well in each row. Half of the volume in the dosed well was serially diluted 2-fold until column 11. Column 11 was used as the negative growth control, and column 12 was used as the positive growth control. ON yeast cultures in YPD were washed twice in DD-H2O, resuspended in PBS, and adjusted to 5000 cfu/mL in RPMI. The 96-well plate was inoculated with 100 μL aliquots of cell suspension per well. Plates were incubated at 37 °C for 2 days.

[5] = system: C. neoformans Crm1^OE; test: microbe, parasite or virus in culture; assay type: cell-based, Cryptococcus neoformans; conditions: compound alone; RPMI1640, 37 °C, 48 h
Method: as §1

[6] = system: C. neoformans apt1Δ; test: microbe, parasite or virus in culture; assay type: cell-based, Cryptococcus neoformans; conditions: compound alone; RPMI1640, 37 °C, 48 h
Method: as §1

[7] = system: C. neoformans MRL862; test: microbe, parasite or virus in culture; assay type: cell-based, Cryptococcus neoformans; conditions: compound alone; RPMI1640, 37 °C, 48 h
Method: as §1

[8] = system: C. neoformans crm1Δ; test: microbe, parasite or virus in culture; assay type: cell-based, Cryptococcus neoformans; conditions: compound alone; RPMI1640, 37 °C, 48 h
Method: as §1

[9] = system: C. neoformans apt3Δ; test: microbe, parasite or virus in culture; assay type: cell-based, Cryptococcus neoformans; conditions: compound alone; RPMI1640, 37 °C, 48 h
Method: as §1

[10] = system: C. neoformans cdc50Δ; test: microbe, parasite or virus in culture; assay type: cell-based, Cryptococcus neoformans
Method: as §1

[11] = system: C. neoformans apt2Δ; test: microbe, parasite or virus in culture; assay type: cell-based, Cryptococcus neoformans; conditions: compound alone; RPMI1640, 37 °C, 48 h
Method: as §1

[12] = system: C. neoformans H99; test: microbe, parasite or virus in culture; assay type: cell-based, Cryptococcus neoformans
Method: as §1

[13] = system: C. neoformans apt4Δ; test: microbe, parasite or virus in culture; assay type: cell-based, Cryptococcus neoformans; conditions: compound alone; RPMI1640, 37 °C, 48 h
Method: as §1

[14] = system: A. fumigatus AF293; test: microbe, parasite or virus in culture; assay type: cell-based, Aspergillus fumigatus; conditions: compound alone; RPMI1640, 37 °C, 48 h; * = paradoxical growth observed (CAS)
Method: as §1

[15] = system: C. auris B11245; test: microbe, parasite or virus in culture; assay type: cell-based, Candida auris; conditions: compound alone; RPMI1640, 37 °C, 48 h; * = paradoxical growth observed (CAS)
Method: as §1

[16] = system: Cn H99; test: microbe, parasite or virus in culture; assay type: cell-based, Cryptococcus neoformans; conditions: 37 °C, 48 h
Method: (§2) Previous studies have shown that modifying microbiological media with salts such as CaCl2 can have a drastic effect on the growth of fungi and their responses to antifungals.[19],[35] In the case of CaCl2, the divalent cation, Ca^2+, is involved in fungal cell stress response. To understand how the peptide activity may involve calcium and stress response, the MICs of KKOO, KKOO-NH2, FLC, and CAS were assessed as a function of the calcium concentration in liquid YPD media. It was observed that calcium enrichment completely desensitized the wild-type strain to KKOO and KKOO-NH2, Tables 7 and 8, respectively. Effects of calcium enrichment on the susceptibility of Cryptococcus to CAS similar to literature values were recorded, Supporting Information, Table S7.[35]
(§3) In order to control for the effects of enriching YPD with a divalent cation, MICs and ROS production were also measured as a function of the MgCl2 supplement at the same millimolar concentrations of cation as in the CaCl2-modified experiments. […] No peptide susceptibility changes were observed against Cn cdc50Δ in magnesium-enriched media, Table S9. ROS production in H99 induced by peptide exposure was inhibited after 30 min of treatment in the magnesium-enriched condition, similar to the levels observed in the calcium-enriched media at 16 μg/mL KKOO-NH2, Figure S1. […] The link between peptide activity and calcium homeostasis may be vital in understanding precisely how the peptide kills fungal cells and requires more research to elucidate.
as §1

[17] = system: Cn cdc50Δ; test: microbe, parasite or virus in culture; assay type: cell-based, Cryptococcus neoformans; conditions: 37 °C, 48 h
Method: as §2, §3, §1

[18] = system: C. glabrata FKS2-S663P; test: microbe, parasite or virus in culture; assay type: cell-based, Candida glabrata; conditions: compound alone; RPMI1640, 37 °C, 48 h
Method: as §1

[19] = system: C. glabrata 2001; test: microbe, parasite or virus in culture; assay type: cell-based, Candida glabrata
Method: as §1

[20] = system: C. glabrata FKS1-S629P; test: microbe, parasite or virus in culture; assay type: cell-based, Candida glabrata; conditions: compound alone; RPMI1640, 37 °C, 48 h
Method: as §1

[21] = system: Cn crm1Δ; test: microbe, parasite or virus in culture; assay type: cell-based, Cryptococcus neoformans; conditions: YPD + 0 mM Ca2+, 37 °C, 48 h
Method: as §2, §1

[22] = system: Cn Crm1-oe; test: microbe, parasite or virus in culture; assay type: cell-based, Cryptococcus neoformans; conditions: YPD + 0 mM Ca2+, 37 °C, 48 h
Method: as §2, §1

[23] = system: Cn apt1Δ; test: microbe, parasite or virus in culture; assay type: cell-based, Cryptococcus neoformans; conditions: 37 °C, 48 h
Method: as §2, §1

[24] = Table S1, unit and conditions not given (MICs elsewhere in μg/mL)
[25] = compound alone, RPMI1640, 37 °C, 48 h

AW9-Ma (Myristoyl-WGGIKKNYA)
64 µg/mL: MIC [2]
0.5: fractional inhibition concentration (FIC) index [1]

CCCCCCCCCCCCCC(=O)N[C@@H](Cc1c[nH]c2ccccc12)C(=O)NCC(=O)NCC(=O)N[C@H](C(=O)N[C@@H](CCCN)C(=O)N[C@@H](CCCN)C(=O)N[C@@H](CC(N)=O)C(=O)N[C@@H](Cc1ccc(O)cc1)C(=O)N[C@@H](C)C(=O)O)[C@@H](C)CC [KKOO] (Myristoyl-WGGI[Orn][Orn]NYA-OH)
≤ 2 h: time of peak killing activity [3]
16: MIC (SAR screen peptides) [4, 24] | MIC (SAR screen peptides) [12, 24] | MIC (SAR screen peptides) [19, 24]
4 µg/mL: MIC [6] | MIC [10, 25] | MIC ([17]; YPD + 0 mM Ca2+) | MIC ([17]; YPD + 10 mM Mg2+, unit inferred)
8 µg/mL: MIC [5] | MIC [7] | MIC [8] | MIC [9] | MIC [11] | MIC [13] | MIC ([17]; YPD + 0 mM Mg2+, unit inferred) | MIC ([17]; YPD + 2.5 mM Ca2+) | MIC ([17]; YPD + 2.5 mM Mg2+, unit inferred) | MIC ([17]; YPD + 5 mM Ca2+) | MIC ([17]; YPD + 5 mM Mg2+, unit inferred) | MIC ([17]; YPD + 10 mM Ca2+) | MIC ([17]; YPD + 20 mM Ca2+) | MIC ([17]; YPD + 20 mM Mg2+, unit inferred) | MIC [21] | MIC [22] | MIC ([23]; YPD + 0 mM Ca2+)
128 µg/mL: MIC ([16]; YPD + 20 mM Mg2+)
32 µg/mL: MIC [4, 25] | MIC ([16]; YPD + 0 mM Ca2+) | MIC ([16]; YPD + 2.5 mM Mg2+) | MIC ([16]; YPD + 5 mM Mg2+) | MIC ([16]; YPD + 10 mM Mg2+) | MIC ([23]; YPD + 2.5 mM Ca2+)
> 128 µg/mL: MIC [14] | MIC [15]
4: MIC (SAR screen peptides) [10, 24]
16 µg/mL: MIC [12, 25] | MIC ([16]; YPD + 0 mM Mg2+) | MIC [18] | MIC [19, 25] | MIC [20]
>128 µg/mL: MIC ([16]; YPD + 2.5 mM Ca2+) | MIC ([16]; YPD + 5 mM Ca2+) | MIC ([16]; YPD + 10 mM Ca2+) | MIC ([16]; YPD + 20 mM Ca2+)
